Results taken from paper PMC11737842, “Development of a high‐throughput dual‐stream liquid chromatography–tandem mass spectrometry method to screen for inhibitors of glutamate carboxypeptidase II” (Rapid Communications in Mass Spectrometry, 2024).
Residues, ends and D or L forms follow the SMILES beside them.

What was measured:
[1] = target: T1, Glutamate carboxypeptidase II (GCPII) (Homo sapiens, UniProt Q04609); experiment: LC/MS/MS measurement of Glu from GCPII cleavage of ([…]5 […]-labelled) NAAG; assay type: biochemical
T1 construct: gene FOLH1
T1 sequence (Q04609 whole entry): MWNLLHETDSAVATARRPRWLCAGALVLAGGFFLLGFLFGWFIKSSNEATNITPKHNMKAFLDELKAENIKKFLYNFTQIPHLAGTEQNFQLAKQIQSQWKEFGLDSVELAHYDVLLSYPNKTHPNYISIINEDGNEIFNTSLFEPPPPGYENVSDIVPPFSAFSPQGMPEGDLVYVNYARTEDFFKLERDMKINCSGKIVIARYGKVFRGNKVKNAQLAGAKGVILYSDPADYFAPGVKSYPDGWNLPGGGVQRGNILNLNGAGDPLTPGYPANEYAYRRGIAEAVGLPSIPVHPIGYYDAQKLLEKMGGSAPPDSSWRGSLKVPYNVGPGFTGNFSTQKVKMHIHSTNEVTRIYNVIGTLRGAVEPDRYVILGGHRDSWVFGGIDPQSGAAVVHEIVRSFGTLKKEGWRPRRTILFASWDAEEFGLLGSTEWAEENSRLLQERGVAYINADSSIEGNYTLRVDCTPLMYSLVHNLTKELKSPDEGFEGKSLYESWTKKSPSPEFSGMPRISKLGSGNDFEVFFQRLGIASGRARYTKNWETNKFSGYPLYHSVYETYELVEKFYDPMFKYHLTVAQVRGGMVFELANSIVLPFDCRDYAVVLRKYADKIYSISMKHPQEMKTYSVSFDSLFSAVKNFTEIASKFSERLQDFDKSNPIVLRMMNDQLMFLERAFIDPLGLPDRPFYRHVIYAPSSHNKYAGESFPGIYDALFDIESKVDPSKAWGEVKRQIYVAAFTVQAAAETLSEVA

[2] = target: T1, Glutamate carboxypeptidase II (GCPII); experiment: LC/MS/MS enzymatic assay of Glu released from NAAG by purchased GCPII, 11-point IC50; assay type: biochemical

Row | SMILES | LC/MS/MS measurement of Glu from GCPII cleavage of (13C5 15N-labelled) NAAG [1] | IC50 [2] [µM]
1 | CC(=O)N[C@@H](CC(=O)O)C(=O)N[C@@H](CCC(=O)O)C(=O)O [NAAG] (Ac-Asp-Glu-OH) | LC/MS/MS) method to directly measure Glu resulting from in vitro GCPII cleavage of NAAG | 
2 | N[C@@H](Cn1oc(=O)[nH]c1=O)C(=O)O [quisqualic acid] |  | 1.59
